Assay results reported in US8361728B2, “Method for diagnosis of glutamate dehydrogenase disorders” (priority 2008, dated 2013).
“And” between values parts separate entries of the source, which are not always exact repeats. Equal values may be shown once. Read-outs that look alike come from different tables or passages of the source. One block for each compound: values may come before it.

Tests used:
[1] = biological target: T1, Ser443-hGDH1 (Arg443Ser hGDH1 mutant) (Homo sapiens, UniProt P00367, R496S); experiment: Inhibition of purified recombinant GDH by female steroidal hormones; format: biochemical
T1 construct: made in house; host or cells: Sf21 insect cells
Text: (§1) Production and Purification of Recombinant hGDHs.
(§2) Purification of Recombinant Wild-Type and Mutant hGDHs—Using extracts of Sf21 cells expressing wild-type hGDH1 or hGDH2, or the Arg443Ser hGDH1 mutant were purified to homogeneity using a previously described procedure (Kanavouras et al., 2007). Also, as described below, the Arg443Ser/Gly456Ala double mutant and the Ser409Arg/Asp single mutants of hGDH1 and the Ser445Ala mutant of hGDH2 were studied after they were purified to homogeneity using extracts of Sf21 cells expressing these proteins. Enzyme recoveries and degree of purification of the final products were similar to those of the wild-type hGDH1 and hGDH2.
This was further tested by studying a double mutant of hGDH1 that, in addition to the Arg443Ser change, carries the Gly456Ala polymorphism that confers resistance to GTP. […] That substitution of Ser for Arg443 is responsible for the sensitivity of the wild-type hGDH2 to estrogens was confirmed by reverse mutagenesis experiments in which the Ser443 of hGDH2 was replaced by Arg.

wild-type hGDH1 = biological target: T2, wild-type hGDH1 (Homo sapiens, UniProt P00367); experiment: as above; format: biochemical
T2 construct: made in house; host or cells: Sf21 insect cells, baculovirus
Experimental: (§3) For this, a study was performed on the interaction of estrogens with the hGDH2 variant as well as with the wild type-hGDH2 and hGDH1 obtained by expression of the corresponding cDNAs in Sf21 cells.
(§4) Production and Purification of Recombinant hGDHs. […] The produced recombinant hGDHs were purified from Sf21 cell extracts using a previously described method that involves Ammonium Sulfate fractionation, hydrophobic interaction and hydroxyapatite chromatography. […] All hGDH proteins studied were produced and analyzed in parallel.
(§5) Enzyme Assays. GDH activity was assayed spectrophotometrically at 25° C. in the direction of reductive amination of α-ketoglutarate. Initial rates (enzyme velocity at the interval during which the change in absorbance maintained linearity) were recorded. […] Regulation of the human recombinant GDHs by allosteric stimulators was studied by adding to the reaction ADP or L-leucine in various concentrations. Inhibition by GTP was studied by adding this compound in various concentrations to the reaction either in the absence of allosteric modulators or in the presence of 0.1 mM or 1.0 mM ADP. For the heat inactivation studies, samples containing about 50 μg/ml purified enzyme were incubated at 47.5° C. Aliquots were removed at specified time intervals and assayed immediately for enzyme activity.
as §2, with “proteins.” for “proteins. Enzyme recoveries and degree of purification of the final products were similar to those of the wild-type hGDH1 and hGDH2.”

hGDH2 [2] = biological target: T3, hGDH2 (Homo sapiens, UniProt P49448); experiment: Allosteric stimulation of recombinant GDH by ADP or L-leucine; format: biochemical; conditions: positive modulation
T3 construct: made in house; host or cells: Sf21 insect cells, baculovirus
Experimental: as §4, §5

Ala445-hGDH2 [3] = biological target: T4, Ala445-hGDH2 (Homo sapiens, UniProt P49448, S498A); experiment: as above; format: biochemical; set-up: made in house; host or cells: Sf21 insect cells, baculovirus; conditions: positive modulation
Experimental: as §4, §5

hGDH1 [4] = biological target: T5, hGDH1 (Homo sapiens, UniProt P00367); experiment: as above; format: biochemical; set-up: made in house; host or cells: Sf21 insect cells, baculovirus; conditions: positive modulation
Experimental: as §4, §5

Ser445Ala hGDH2 variant = biological target: T6, Ser445Ala hGDH2 variant (Homo sapiens, UniProt P49448, S498A); experiment: Inhibition of purified recombinant GDH by estrogens; format: biochemical; conditions: baseline conditions (absence of allosteric effectors)
T6 construct: made in house; host or cells: Sf21 insect cells, baculovirus
Experimental: as §3, §1

wild-type hGDH2 = biological target: T7, wild-type hGDH2 (Homo sapiens, UniProt P49448); experiment: Inhibition of purified recombinant GDH by female steroidal hormones; format: biochemical; conditions: for relative inhibition of hGDH2 versus hGDH1: in words
T7 construct: made in house; host or cells: Sf21 insect cells, baculovirus
Experimental: as §3, §4, §5
as §2, with “proteins.” for “proteins. Enzyme recoveries and degree of purification of the final products were similar to those of the wild-type hGDH1 and hGDH2.”

Ala445-hGDH2 [5] = biological target: T4, Ala445-hGDH2; experiment: GTP inhibition of purified recombinant GDH activity; format: biochemical; set-up: made in house; host or cells: Sf21 insect cells, baculovirus
Experimental: (§6) To investigate whether the Ser445Ala change modified the protein function of hGDH2, an Ala445-hGDH2 variant was obtained in recombinant form by expressing in Sf21 cells using the baculovirus expression system a GLUD2 cDNA with G instead of 1492T. […] The specific basal activity of the variant was concentration-dependent (FIGS. 6&7), as also previously shown for hGDH2 but not for hGDH1. At enzyme concentrations of about 5 μg/ml, the basal specific activity of the variant approached that of hGDH1 (FIGS. 6 & 7), but in contrast to the latter this activity was resistant to suppression by GTP (Table 3).
as §1

hGDH1 [6] = biological target: T5, hGDH1; experiment: as above; format: biochemical; set-up: made in house; host or cells: Sf21 insect cells, baculovirus
Experimental: as §6, §1

hGDH2 [7] = biological target: T3, hGDH2; experiment: as above; format: biochemical
Experimental: as §6, §1

hGDH1 [8] = biological target: T5, hGDH1; set-up: made in house; host or cells: Sf21 insect cells, baculovirus; conditions: Zaganas and Plaitakis, 2002; read-out: IC50 (GTP inhibition); cited from earlier work
hGDH2 [9] = biological target: T3, hGDH2; conditions: Zaganas and Plaitakis, 2002; read-out: IC50 (GTP inhibition); cited from earlier work
Ala445-hGDH2 [10] = biological target: T4, Ala445-hGDH2
Experimental: as §4
as §5, with “GDH activity was assayed spectrophotometrically at 25° C. in the direction of reductive amination of α-ketoglutarate.” left out

Ser445-hGDH2 = Ser445-hGDH2 (Homo sapiens, UniProt P49448)
Experimental: as §4
as §5, with “GDH activity was assayed spectrophotometrically at 25° C. in the direction of reductive amination of α-ketoglutarate.” left out

hGDH1 [11] = biological target: T5, hGDH1
Experimental: as §4
as §5, with “GDH activity was assayed spectrophotometrically at 25° C. in the direction of reductive amination of α-ketoglutarate.” left out

[12] = No ADP (baseline conditions), read-out: IC50

T3 sequence (P49448 54-558): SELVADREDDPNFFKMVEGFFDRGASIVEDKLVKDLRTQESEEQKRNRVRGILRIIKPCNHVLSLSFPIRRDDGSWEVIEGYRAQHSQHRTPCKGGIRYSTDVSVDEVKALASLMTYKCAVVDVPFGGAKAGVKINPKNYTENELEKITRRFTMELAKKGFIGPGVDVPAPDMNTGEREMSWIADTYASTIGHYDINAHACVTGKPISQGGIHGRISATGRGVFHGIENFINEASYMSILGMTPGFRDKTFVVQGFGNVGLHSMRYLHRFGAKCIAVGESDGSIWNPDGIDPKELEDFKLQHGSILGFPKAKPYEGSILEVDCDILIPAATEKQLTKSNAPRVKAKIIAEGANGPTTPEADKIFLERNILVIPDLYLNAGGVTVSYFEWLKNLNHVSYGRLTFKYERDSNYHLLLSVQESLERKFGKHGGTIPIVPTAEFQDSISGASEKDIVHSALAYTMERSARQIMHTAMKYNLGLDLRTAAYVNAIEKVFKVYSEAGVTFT
T7 sequence (P49448 54-558): as above
T4 sequence (P49448 54-558 S498A): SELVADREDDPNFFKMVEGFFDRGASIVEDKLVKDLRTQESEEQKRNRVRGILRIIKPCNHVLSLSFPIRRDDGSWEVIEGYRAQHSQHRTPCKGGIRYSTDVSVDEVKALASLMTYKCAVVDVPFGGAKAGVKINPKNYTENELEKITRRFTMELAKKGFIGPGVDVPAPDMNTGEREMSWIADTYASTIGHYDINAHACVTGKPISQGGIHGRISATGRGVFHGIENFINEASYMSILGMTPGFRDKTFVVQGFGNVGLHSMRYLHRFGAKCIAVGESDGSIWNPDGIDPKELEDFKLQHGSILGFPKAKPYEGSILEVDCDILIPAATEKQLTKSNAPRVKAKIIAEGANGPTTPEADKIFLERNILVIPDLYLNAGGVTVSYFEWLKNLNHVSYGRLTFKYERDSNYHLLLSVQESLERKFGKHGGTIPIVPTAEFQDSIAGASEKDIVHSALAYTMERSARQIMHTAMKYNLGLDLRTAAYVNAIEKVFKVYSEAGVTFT
T1 sequence (P00367 54-558 R496S): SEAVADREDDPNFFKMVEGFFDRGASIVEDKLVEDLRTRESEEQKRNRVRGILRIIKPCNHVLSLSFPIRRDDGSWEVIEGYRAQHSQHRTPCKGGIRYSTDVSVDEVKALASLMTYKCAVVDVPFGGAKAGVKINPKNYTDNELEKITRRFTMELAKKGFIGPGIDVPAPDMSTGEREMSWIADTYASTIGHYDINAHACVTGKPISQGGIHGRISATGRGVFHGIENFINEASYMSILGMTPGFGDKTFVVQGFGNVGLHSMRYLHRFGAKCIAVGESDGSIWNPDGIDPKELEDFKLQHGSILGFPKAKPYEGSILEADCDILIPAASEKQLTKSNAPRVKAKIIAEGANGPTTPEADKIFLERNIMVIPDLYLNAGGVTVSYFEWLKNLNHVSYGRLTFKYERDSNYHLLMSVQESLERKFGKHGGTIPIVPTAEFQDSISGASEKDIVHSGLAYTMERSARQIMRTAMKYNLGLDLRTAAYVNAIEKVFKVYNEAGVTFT
T5 sequence (P00367 54-558): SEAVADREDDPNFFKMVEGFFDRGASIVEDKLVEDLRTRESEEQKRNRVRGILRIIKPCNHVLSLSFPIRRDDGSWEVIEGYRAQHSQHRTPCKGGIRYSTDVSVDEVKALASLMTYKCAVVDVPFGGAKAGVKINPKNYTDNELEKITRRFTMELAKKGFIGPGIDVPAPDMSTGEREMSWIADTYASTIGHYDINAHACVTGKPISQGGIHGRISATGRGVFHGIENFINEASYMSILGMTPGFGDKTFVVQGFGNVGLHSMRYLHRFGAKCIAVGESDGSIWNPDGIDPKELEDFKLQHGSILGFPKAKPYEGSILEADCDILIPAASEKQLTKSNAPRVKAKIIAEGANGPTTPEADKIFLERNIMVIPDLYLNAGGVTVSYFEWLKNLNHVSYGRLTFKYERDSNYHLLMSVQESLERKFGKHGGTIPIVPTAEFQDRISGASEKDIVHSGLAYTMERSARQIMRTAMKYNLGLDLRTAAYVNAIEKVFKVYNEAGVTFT
T2 sequence (P00367 54-558): as above
Sequence of Ser445-hGDH2 (P49448 54-558): as the sequence (P49448 54-558) above
T6 sequence (P49448 54-558 S498A): as the sequence (P49448 54-558 S498A) above

SMILES: C[C@]12CC[C@@H]3c4ccc(O)cc4CC[C@H]3[C@@H]1CC[C@@H]2O [17 b-Estradiol, 17 beta-estradiol]
IC50 [1]: 2.22 ± 0.76 µM
IC50 (wild-type hGDH1; IC50, 0.1 mM ADP): 69.2 ± 1.3 µM
IC50 (wild-type hGDH1; IC50, No ADP (baseline conditions)): 26.9 µM

SMILES: Nc1ncnc2c1ncn2[C@@H]1O[C@H](COP(=O)(O)OP(=O)(O)O)[C@@H](O)[C@H]1O [ADP]
EC50 (hGDH2 [2]; read-out: ADP SC50): 68.5 ± 2.3 µM
EC50 (Ala445-hGDH2 [3]; read-out: ADP SC50): 58.2 ± 5.5 µM
EC50 (hGDH1 [4]; read-out: ADP SC50): 22.4 ± 2.1 µM

SMILES: N[C@@H](CCC(=O)O)C(=O)O [Glutamate]
Km (Ala445-hGDH2 [10]; read-out: Km Glutamate): 6.8 ± 1.9 mM
Km (Ser445-hGDH2; read-out: Km Glutamate): 10.7 ± 1.77 mM
Km (hGDH1 [11]; read-out: Km Glutamate): 12.4 ± 1.48 mM

SMILES: O=C(O)CCC(=O)C(=O)O [α-Ketoglutarate]
Km (Ala445-hGDH2 [10]; read-out: Km α-Ketoglutarate): 2.67 ± 0.31 mM
Km (Ser445-hGDH2; read-out: Km α-Ketoglutarate): 2.07 ± 0.29 mM
Km (hGDH1 [11]; read-out: Km α-Ketoglutarate): 2.01 ± 0.18 mM

Further lines, with some results ahead:

IC50 ([1]; 0.1 mM ADP, read-out: IC50): 0.51 ± 0.05 µM
IC50 (Ser445Ala hGDH2 variant): 0.019 ± 0.003 µM
IC50 (wild-type hGDH1; 0.1 mM ADP, read-out: IC50): 7.07 ± 0.4 µM
IC50 (wild-type hGDH1; [12]): 1.67 ± 0.02 µM
IC50 (wild-type hGDH1; baseline conditions (absence of allosteric effectors), read-out: IC50±S.E.): 1.53 µM
IC50 (wild-type hGDH2; 0.1 mM ADP): 1.05 ± 0.09 µM
IC50 (wild-type hGDH2; No ADP (baseline conditions)): 0.094 µM and 0.09 µM
fold higher sensitivity/affinity of hGDH2 than hGDH1 (wild-type hGDH2; baseline conditions, hGDH2 versus hGDH1): > 15 fold and ~18 fold
effect of inhibitor on Km for α-ketoglutarate, NH3 or glutamate (wild-type hGDH2; inhibitory concentrations of DES, wild-type hGDH1 and hGDH2): not altered
SMILES: CC/C(=C(/CC)c1ccc(O)cc1)c1ccc(O)cc1 [DES, diethylstilbestrol]

Hill Coefficient (Ala445-hGDH2 [5]; 0.1 mM ADP): 1.01 ± 0.09
IC50 (Ala445-hGDH2 [5]; 0.1 mM ADP): 24.4 ± 2.62 µM
Hill Coefficient (Ala445-hGDH2 [5]; 1 mM ADP): 0.71 ± 0.04
IC50 (Ala445-hGDH2 [5]; 1 mM ADP): 258 ± 42.2 µM
Hill Coefficient (Ala445-hGDH2 [5]; No ADP): 0.80 ± 0.05
IC50 (Ala445-hGDH2 [5]; No ADP): 29.1 ± 4.48 µM
Hill Coefficient (hGDH1 [6]; 0.1 mM ADP): 2.13 ± 0.15
IC50 (hGDH1 [6]; 0.1 mM ADP): 1.61 ± 0.02 µM
Hill Coefficient (hGDH1 [6]; 1 mM ADP): 1.94 ± 0.07
IC50 (hGDH1 [6]; 1 mM ADP): 18.5 ± 0.49 µM
Hill Coefficient (hGDH1 [6]; No ADP): 1.51 ± 0.07
IC50 (hGDH1 [6]; No ADP): 0.31 ± 0.03 µM
Hill Coefficient (hGDH2 [7]; 0.1 mM ADP): 1.06 ± 0.16
IC50 (hGDH2 [7]; 0.1 mM ADP): 12.2 ± 2.65 µM
Hill Coefficient (hGDH2 [7]; 1 mM ADP): 0.82 ± 0.11
IC50 (hGDH2 [7]; 1 mM ADP): 204 ± 36.4 µM
Hill Coefficient (hGDH2 [7]; No ADP): 0.72 ± 0.05
IC50 (hGDH2 [7]; No ADP): 40.1 ± 4.46 µM
SMILES: Nc1nc2c(ncn2[C@@H]2O[C@H](COP(=O)(O)OP(=O)(O)OP(=O)(O)O)[C@@H](O)[C@H]2O)c(=O)[nH]1 [GTP]
IC50 (hGDH1 [8]): 0.1 to 0.3 µM
IC50 (hGDH2 [9]): > 200 µM

EC50 (hGDH2 [2]; read-out: L-leucine SC50): 1010 ± 213 µM
EC50 (Ala445-hGDH2 [3]; read-out: L-leucine SC50): 955 ± 45 µM
EC50 (hGDH1 [4]; read-out: L-leucine SC50): 860 ± 139 µM
SMILES: CC(C)C[C@H](N)C(=O)O [L-leucine]

IC50 ([1]; 0.1 mM ADP, read-out: IC50): 2.43 ± 0.05 µM
IC50 (wild-type hGDH1; 0.1 mM ADP, read-out: IC50): 316 ± 26.1 µM
IC50 (wild-type hGDH1; [12]): 145 ± 18.8 µM
IC50 (wild-type hGDH2; 0.1 mM ADP): 189 ± 17.9 µM
IC50 (wild-type hGDH2; No ADP (baseline conditions)): 11.3 ± 0.74 µM
relative inhibition of hGDH2 versus hGDH1 (wild-type hGDH2): inhibited hGDH2 more strongly than hGDH
relative inhibition of hGDH2 versus hGDH1 (wild-type hGDH2; listed as oestriol): inhibited hGDH2 more strongly than hGDH1
SMILES: C[C@]12CC[C@@H]3c4ccc(O)cc4CC[C@H]3[C@@H]1C[C@@H](O)[C@@H]2O [Oestriol]

IC50 ([1]; 0.1 mM ADP, read-out: IC50): 8.62 ± 1.23 µM
IC50 (wild-type hGDH1; 0.1 mM ADP, read-out: IC50): 596 ± 50.1 µM
IC50 (wild-type hGDH1; [12]): 219 ± 7.99 µM
IC50 (wild-type hGDH2; 0.1 mM ADP): 392 ± 8.91 µM
IC50 (wild-type hGDH2; No ADP (baseline conditions)): 12.3 ± 2.63 µM
relative inhibition of hGDH2 versus hGDH1 (wild-type hGDH2): inhibited hGDH2 more strongly than hGDH
relative inhibition of hGDH2 versus hGDH1 (wild-type hGDH2; listed as progesterone): inhibited hGDH2 more strongly than hGDH1
SMILES: CC(=O)[C@H]1CC[C@H]2[C@@H]3CCC4=CC(=O)CC[C@]4(C)[C@H]3CC[C@]12C [Progesterone]
